Experimental data published in the supplement of paper PMC3493320.

Test system: NCI-H295R
Experiment: IC50 (antiproliferative, ATP content)
Conditions: 48 h
Method in brief: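 Cell viability of adrenocortical carcinoma cells was assessed as ATP by CellTiter-Glo luminescence. Cells at 1500 per well in 1536-well plates, in serum-free DMEM with ITS, received compounds by pin transfer at 8 final concentrations (0.6 nM–46 µM) after overnight culture and were then held 48 h at 37 °C, 5% CO2. IC50 was calculated by logistic fitting against vehicle and positive-control wells, compounds with no concentration response being recorded as above the top dose.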

IC50	Structure (SMILES)
> 46 µM	COc1ccc(C(Cl)=C(c2ccc(OC)cc2)c2ccc(OC)cc2)cc1
> 46 µM	Cc1onc(-c2ccccc2Cl)c1C(=O)N[C@@H]1C(=O)N2[C@@H]1SC(C)(C)[C@@H]2C(=O)[O-].[Na+]
> 46 µM	Cc1cc(-n2nc3ccc(Cl)cc3n2)c(O)c(C(C)(C)C)c1
> 46 µM	COc1cc(S(C)=O)ccc1-c1nc2ncccc2[nH]1 (stereo not drawn)
> 46 µM	CC1COc2c(N3CCN(C)CC3)c(F)cc3c(=O)c(C(=O)O)cn1c23 (stereo not drawn)
> 46 µM	C[C@H](CCCC(C)(C)O)[C@H]1CC[C@H]2[C@@H]3CC=C4C[C@@H](O)CC[C@]4(C)[C@H]3CC[C@]12C
> 46 µM	NC(=O)c1ncn([C@@H]2O[C@H](CO)[C@@H](O)[C@H]2O)c1N
> 46 µM	Cc1cc(-c2ccccc2)nnc1NCCN1CCOCC1.Cl.Cl
> 46 µM	CCOC(=S)SSC(=S)OCC
> 46 µM	CC(C)(C)C(=O)OCOC(=O)[C@@H]1N2C(=O)[C@@H](/N=C/N3CCCCCC3)[C@H]2SC1(C)C.Cl
> 46 µM	O=C1c2ccccc2C(=O)C1c1ccc(Cl)cc1
> 46 µM	Nc1nnc(-c2cccc(Cl)c2Cl)c(N)n1
> 46 µM	C=C(C)C1CC=C(C)CC1 (stereo not drawn)
> 46 µM	CN1C2=CC(=O)C(=NNC(N)=O)C=C2CC1S(=O)(=O)[O-].[Na+] (stereo not drawn)
> 46 µM	CC(C)Cc1ccc(C(C)C(=O)O)cc1 (stereo not drawn)
> 46 µM	NC(CS)C(=O)O (stereo not drawn)
> 46 µM	Clc1cccc(Cl)c1N=C1NCCN1
> 46 µM	N#Cc1ccc2c(c1)N(CCCN1CCC(O)CC1)c1ccccc1S2
> 46 µM	CCCCCCCC(=O)OCC(O)CO (stereo not drawn)
> 46 µM	O=CCCCC=O
> 46 µM	CC12CC3CC(C)(C1)CC(N)(C3)C2
> 46 µM	C#C[C@]1(O)CC[C@H]2[C@@H]3CCc4cc(OC)ccc4[C@H]3CC[C@@]21C
> 46 µM	CCN(CC)C(=O)c1cccc(C)c1
> 46 µM	F\C1=C\N(C(=O)NC1=O)[C@@H]2O[C@H](C)[C@@H](O)[C@H]2O
> 46 µM	CCCC(=O)Nc1ccc(OCC(O)CNC(C)C)c(C(C)=O)c1.Cl (stereo not drawn)

IC50	Structure (SMILES)
> 46 µM	[Na+].C/C(C)=C\Cc1cc(ccc1O)C(=O)N\C3=C(/[O-])c4ccc(O[C@@H]2OC(C)(C)[C@H](OC)[C@@H](OC(N)=O)[C@H]2O)c(C)c4OC3=O
> 46 µM	CNC(=O)c1c(I)c(C(=O)NCC(=O)Nc2c(I)c(C(=O)O)c(I)c(C(=O)NCCO)c2I)c(I)c(N(C)C(C)=O)c1I
> 46 µM	C[C@]12CC[C@@H]3c4ccc(O)cc4C[C@@H](CCCCCCCCCS(=O)CCCC(F)(F)C(F)(F)F)[C@H]3[C@@H]1CC[C@@H]2O (stereo partly drawn)
> 46 µM	CN(N=O)C(=O)N[C@@H]1[C@@H](O)[C@H](O)[C@@H](CO)O[C@@H]1O
> 46 µM	Cc1ccc(O)c(-n2nc3ccccc3n2)c1
> 46 µM	CC[N+](CC)(CC)CCC(O)(c1ccccc1)C1CCCCC1.[Cl-] (stereo not drawn)
> 46 µM	O=S(C1=CC=CC2=C1NC[C@H](C)C2)(N[C@@H](CCCNC(N)=N)C(N3[C@@H]([C@](O)=O)C[C@H](C)CC3)=O)=O
> 46 µM	O=[C@](CO)[C@](CC2)(O)[C@](CC1)(C)[C@]2([H])[C@@](CC4)([H])[C@@]1([H])[C@](CC3)(C)C4=CC3=O
> 46 µM	Cl.O=C1c2cccc3c2[C@H](CCC3)CN1[C@@H]1CN2CCC1CC2
> 46 µM	CC(Cc1ccccc1)(NC(=O)CN)c1ccccc1.Cl (stereo not drawn)
> 46 µM	O=C2N1[C@]([C@@]([H])2NC(CC3=CC=CC=C3)=O)([H])SC(C)(C)[C@@H]1[C@@]([O-])=O.[K+]
> 46 µM	CCCCCCCCCCCCCC[n+]1ccc(C)cc1.[Cl-]
> 46 µM	COc1cc(C(=O)NCCCCCC(=O)O)cc(OC)c1OC
> 46 µM	CC1CC(O)CC(C)(C)C1 (stereo not drawn)
> 46 µM	O=C2N1[C@]([C@@]([H])2NC(C(C(OC)=CC=C3)=C3OC)=O)([H])SC(C)(C)[C@@H]1[C@@]([O-])=O.[Na+].O
> 46 µM	Nc1nc(/C(=C/CC(=O)O)C(=O)N[C@@H]2C(=O)N3C(C(=O)O)=CCS[C@H]23)cs1
> 46 µM	Cc1nnc(NS(=O)(=O)c2ccc(N)cc2)s1
> 46 µM	CN1CCC(=C2c3ccccc3CC(=O)c3sccc32)CC1
> 46 µM	C#CCN(C)CCCOc1ccc(Cl)cc1Cl.Cl
> 46 µM	OC[C@H]1OC(O)[C@H](O)[C@@H](O)[C@H]1O (stereo partly drawn)
> 46 µM	CCCCC[C@H](O)/C=C/[C@@H]1[C@@H](C/C=C\CCCC(=O)O)[C@@H](O)C[C@H]1O
> 46 µM	O=C(NCCO[N+](=O)[O-])c1cccnc1
> 46 µM	C[C@H]1[C@H](NC(=O)C(=NOC(C)(C)C(=O)O)c2csc(N)n2)C(=O)N1S(=O)(=O)O
> 46 µM	Cc1c(Cn2ccnc2)c2ccccc2n1CCC(=O)O
> 46 µM	CC(=O)N(CC(O)CN(C(C)=O)c1c(I)c(C(=O)NCC(O)CO)c(I)c(C(=O)NCC(O)CO)c1I)c1c(I)c(C(=O)NCC(O)CO)c(I)c(C(=O)NCC(O)CO)c1I (stereo not drawn)

IC50	Structure (SMILES)
> 46 µM	O=C(Oc1ccccc1C(=O)O)c1ccccc1O
> 46 µM	O=C(OC(C)C)/C(C(OC(C)C)=O)=C1SC=CS/1
> 46 µM	CN1CC(=O)N=C1NC(=O)Nc1cccc(Cl)c1
> 46 µM	O=C(O)c1ccc(S(=O)(=O)N(Cl)Cl)cc1
> 46 µM	CCC(C(=O)OCCN(CC)CC)c1ccccc1 (stereo not drawn)
> 46 µM	CCOC(=O)[N-]c1c[n+](N2CCOCC2)no1
> 46 µM	CC(C)OC(=O)C(C)(C)Oc1ccc(C(=O)c2ccc(Cl)cc2)cc1
> 46 µM	OC[C@H]1O[C@@H](O[C@@H]2[C@@H](CO)O[C@](O)(CO)[C@H]2O)[C@H](O)[C@@H](O)[C@H]1O
> 46 µM	Cc1cc(=O)n(-c2ccccc2)n1C
> 46 µM	COC(=O)[C@H]1[C@H]2C[C@H]3c4[nH]c5ccccc5c4CCN3C[C@H]2CC[C@@H]1O
> 46 µM	CC1(C)O[C@@H]2[C@@H](CO[C@@]3(COS(N)(=O)=O)OC(C)(C)O[C@@H]23)O1
> 46 µM	CCOC(=O)C1=C(COCCN)NC(C)=C(C(=O)OC)C1c1ccccc1Cl.O=S(=O)(O)c1ccccc1 (stereo not drawn)
> 46 µM	CCC(C)(Oc1ccc(C2(c3ccc(OC(C)(CC)C(=O)O)cc3)CCCCC2)cc1)C(=O)O (stereo not drawn)
> 46 µM	Cc1cc(N)c2ccccc2[n+]1CCCCCCCCCC[n+]1c(C)cc(N)c2ccccc21.[Cl-].[Cl-]
> 46 µM	CN(C)C(=S)SC(=S)N(C)C
> 46 µM	CCN(CC)CC1CCCCN1CC(=O)N1c2ccccc2C(=O)Nc2cccnc21 (stereo not drawn)
> 46 µM	CN1CCC(OC(c2ccccc2)c2ccccc2)CC1.Cl
> 46 µM	O=C5O[C@]4(CC5)[C@@]3(C)C[C@@H]6[C@]([C@@]([C@@]([H])3CC4)([H])[C@H]([C@@](OC)=O)C2)(O6)[C@@](C2=C1)(C)CCC1=O
> 46 µM	OCC(=O)[C@@]3(O)CC[C@H]2[C@@H]4CC\C1=C\C(=O)CC[C@]1(C)[C@H]4C(=O)C[C@@]23C
> 46 µM	CCCCCCCCCCCCCCCCCCOCC(O)CO (stereo not drawn)
> 46 µM	N/C(N)=N/C1=NC(CSCCC(N)=NS(N)(=O)=O)=CS1
> 46 µM	O=C3N1/C(=C(\CS[C@@H]1[C@@H]3NC(=O)Cc2cccs2)C[n+]4ccccc4)C([O-])=O
> 46 µM	O=C(c1ccccc1)c1ccc2n1CCC2C(=O)O (stereo not drawn)
> 46 µM	CC(=O)N=c1sc(S(N)(=O)=O)nn1C

Structure (SMILES)	IC50
CCNC(=O)N(CCCN(C)C)C(=O)[C@@H]1C[C@@H]2c3cccc4N\C=C(\C[C@H]2N(C1)CC=C)c34	> 46 µM
CCC(N)Cc1c[nH]c2ccccc12 (stereo not drawn)	> 46 µM
CCS(=O)(=O)C(C)(C)S(=O)(=O)CC	> 46 µM
CCCC[N@@+]1(C)[C@@H]2C[C@@H](OC(=O)[C@H](CO)c3ccccc3)C[C@H]1[C@@H]1O[C@@H]12.[Br-]	> 46 µM
NNCCc1ccccc1.O=S(=O)(O)O	> 46 µM
Cc1nnc2n1-c1ccc(Cl)cc1C(c1ccccc1Cl)=NC2	> 46 µM
COC(=O)C1=CCCN(C)C1	> 46 µM
C[C@]12CC[C@H]3[C@@H](CCC4=C(Cl)C(=O)CC[C@@]43C)[C@@H]1CC[C@@H]2O	> 46 µM
O=C2N1[C@]([C@@]([H])2N)([H])SC(C)(C)[C@@H]1[C@@](O)=O	> 46 µM
CC(=O)O[C@@H]3C\C4=C\C[C@@H]2[C@H](CC[C@]1(C)C(=O)CC[C@H]12)[C@@]4(C)CC3	> 46 µM
CC(C)(C)NCC(O)c1cc(Cl)c(N)c(C(F)(F)F)c1.Cl (stereo not drawn)	> 46 µM
Cc1nnc2n1-c1ccc(Cl)cc1C(c1ccccc1)=NC2	> 46 µM
CN1CCC\C(C1)=C(/C2=CC=CS2)C3=CC=CS3	> 46 µM
CN(C)CCOc1ccccc1Cc1ccccc1.O=C(O)CC(O)(CC(=O)O)C(=O)O	> 46 µM
CCC1(c2ccccc2)CCC(=O)NC1=O (stereo not drawn)	> 46 µM
CC(C)NNC(=O)c1ccncc1.O=S(=O)(O)O	> 46 µM
N[C@@H](Cc1ccc(Oc2cc(I)c(O)c(I)c2)c(I)c1)C(=O)O	> 46 µM
c1ccc2c(c1)Nc1ccccc1S2	> 46 µM
BrC=7Nc1cccc\6c1C=7C[C@@H]2C/6=C/[C@H](CN2C)C(=O)N[C@@]3(O[C@]5(O)N(C3=O)[C@@H](CC(C)C)C(=O)N4CCC[C@H]45)C(C)C	> 46 µM
NC[C@@H]1O[C@H](O[C@H]2[C@@H](O)[C@H](O[C@@H]3[C@@H](O)[C@H](N)C[C@H](N)[C@H]3O[C@H]3O[C@H](CO)[C@@H](O)[C@H](O)[C@H]3N)O[C@@H]2CO)[C@H](N)[C@@H](O)[C@@H]1O.O=S(=O)(O)O	> 46 µM
O=P1(NCCCl)OCCCN1CCCl (stereo not drawn)	> 46 µM
O=C(CS(=O)C(c1ccccc1)c1ccccc1)NO (stereo not drawn)	> 46 µM
CCCCCCCCCC(=O)O[C@H]2CC[C@H]3[C@@H]4CC\C1=C\C(=O)CC[C@@H]1[C@H]4CC[C@]23C	> 46 µM
CCCC1CCCCN1 (stereo not drawn)	> 46 µM
